Patent US8952054B2, “Small molecule inhibitors of MUC1 and methods of identifying the same” (Dana-Farber Cancer Institute, Inc., priority 2010, dated 2015)

Legend:
MUC1 promoter = assay: MUC1-C occupancy on the MUC1 promoter; format: cell-based
MUC1-CD = biological target: T1, MUC1-CD (Homo sapiens, UniProt P15941); assay: Plate-based MUC1-CD dimerization inhibition assay (primary screening); format: biochemical
T1 construct: the 72 aa cytoplasmic domain (CD); His; made in house
T1 sequence (P15941 1184-1255 limits assumed): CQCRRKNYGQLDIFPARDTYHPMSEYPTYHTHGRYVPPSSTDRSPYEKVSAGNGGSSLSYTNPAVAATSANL
Description: FIG. 6—Schematic Illustration of Primary HTS Screening Assay for MUC1-CD Dimerization. MUC1-CD protein was coated on a 96 well plate and then incubated with Biotinylated MUC1-CD that binds to non-biotinylated MUC1-CD protein by dimer formation. Bound biotinylated MUC1-CD protein was detected by incubation with Streptavin-HRP+peroxidase substrate system.
FIGS. 11A-C—Identification of MUC1-CD dimerization inhibitors in a small molecule screen. (FIG. 11A) Schematic representation of the MUC1-C subunit with the 58 amino acid (aa) extracellular domain (ECD), the 28 aa transmembrane domain (TD) and the 72 aa cytoplasmic domain (CD; SEQ ID NO: 1). The sequence of MUC1-CD is included with highlighting of the CQC dimerization motif. (FIG. 11B) The assay for identification of MUC1-CD dimerization inhibitors is depicted with the following steps: (i) coating of MUC1-CD onto a microplate, (ii) adding soluble biotinylated MUC1-C and […] compound, and (iii) addition of streptavidin-HRP and then peroxide with conversion by HRP to a blue color. The signal is measured by EnVision and proportional to the amount of bound biotin-labeled MUC1-CD.
FIGS. 12A-D—Apigenin is an inhibitor of MUC1-CD dimerization in vitro and in cells. (FIG. 12A) Structures of apigenin and its analogue baicalein. Using the in vitro screening assay, dimerization of MUC1-CD was assessed in the presence of 100 μM apigenin or 100 μM baicalein each dissolved in 0.1% DMSO. The results (mean±SD of 3 determinations) are expressed as percentage of control dimerization in the presence of DMSO alone. (FIG. 12B) MUC1-CD dimerization was assessed in the presence of the indicated concentrations of apigenin in the in vitro screening assay. […] (FIG. 12C) Soluble MUC1-CD was incubated in the presence of 1% DMSO, 1 mM apigenin or 1 mM baicalein for 1 h at room temperature. Monomers and dimmers were assessed by electrophoresis in a non-reducing gel and immunoblotting with anti-MUC1-C. (FIG. 12D) 293 cells were transiently transfected to express an empty vector or GFP-MUC1-CD and Flag-MUC1-CD. At six hours after transfection, the cells were left untreated, and treated with 75 μM apigenin or baicalein for 3 days. Whole-cell lysates were precipitated with anti-Flag, and the precipitates were immunoblotted with the indicated antibodies.
Multi-well (96- or 384-well) plates are coated with non-biotinylated MUC1-CD, and biotinylated MUC1-CD is added to the plates to initiate MUC1-CD dimerization or oligomerization. A luminescent substrate for biotin binding is added to the plate, followed by washing. Resulting fluorescence is detected by luminescence detection at absorbance 405 nm. A complete schematic illustration of this assay is described in […]. Test compounds are added at multiple concentrations to the plates and, following incubation and washing, the plates are read for luminescent detection. The formation of MUC1-CD dimers is detected.
To develop a HTS assay for compounds that inhibit MUC1-CD dimerization, the inventors generated purified His-tagged MUC1-CD protein. They also generated a biotin-labeled His-tagged MUC1-CD protein using a standard biotinylation kit. Biotinylated and non-biotinylated proteins were purified through Nickel columns.
The inventors coated 96- or 384-well plates with non-biotinylated MUC1-CD protein and added biotinylated MUC1-CD protein to the plates to initiate MUC1-CD/MUC1-CD dimerization or oligomerization. They then added a substrate to the plate which will bind to the biotinylated protein (only at the dimer or oligomer state) and the resultant fluorescence was detected by luminescence detection at absorbance 405 nm. A complete schematic illustration of this assay is described in FIG. 6.
Individual compounds from the chemical libraries were then added at multiple concentrations (0.01 μM to 100 μM) to the plates and following incubation and washing, the plates were read by luminescence detection at […]. […]

MUC1-C = biological target: T2, MUC1-C (Homo sapiens, UniProt P15941); assay: Immunoblot of whole cell and nuclear MUC1-C levels in ZR-75-1 cells; format: cell-based; parameters: Human ZR-75-1 and MCF-7 breast cancer cells overexpress endogenous MUC1; endogenous in cells; host or cells: ZR-75-1; MCF-7; conditions: ZR-75-1, 5 μM peptide, 3 d; for nuclear MUC1-C levels: nuclear lysates; for cellular MUC1-C levels: whole cell lysates
T2 sequence (P15941 1098-1255 limits assumed): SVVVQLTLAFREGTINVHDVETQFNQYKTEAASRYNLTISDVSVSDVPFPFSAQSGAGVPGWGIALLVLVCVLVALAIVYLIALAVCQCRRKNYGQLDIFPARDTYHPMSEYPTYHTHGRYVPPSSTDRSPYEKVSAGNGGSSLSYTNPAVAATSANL
Description: FIGS. 2A-C. MUC1/CQC peptide blocks nuclear localization of MUC1-C. (FIG. 2A) ZR-75-1 cells were incubated with 5 μM FITC-labeled MUC1/CQC peptide for the indicated times and then analyzed by flow cytometry. The mean fluorescence index (MFI) is included in each of the panels. (FIGS. 2B-C) ZR-75-1 (FIG. 2B) and MCF-7 (FIG. 2C) cells were incubated in the presence of 5 μM MUC1/CQC or MUC1/AQA peptide for 3 d. Whole cell lysates (WCL) (left panels) and nuclear lysates (right panels) were immunoblotted with the indicated antibodies.
Whole cell and nuclear lysates were prepared as described (Leng et al., 2007). Soluble proteins were subjected to immunoprecipitation with anti-Flag (Sigma, St. Louis, Mo.). Immunoprecipitates and soluble proteins were analyzed by immunoblotting with anti-His (Cell Signaling Technology, Danvers, Mass.), anti-GFP (Millipore, Danvers, Mass.), anti-Flag, anti-MUC1-C (Ab1; NeoMarkers, Fremont, Calif.), anti-lamin B (EMD, La Jolla, Calif.) or anti-β-actin (Sigma). Reactivity was detected with horseradish peroxidase-conjugated second antibodies and chemiluminescence.

[1] = 100 μM, compared to vehicle (DMSO)

| Molecule | MUC1-C occupancy on the MUC1 promoter (MUC1 promoter) | inhibition of MUC1-CD dimerization (MUC1-CD; [1]) | inhibition at 100 µM (MUC1-CD; [1]) | initial library screen result (MUC1-CD; library of Table 1) | IC50 (MUC1-CD; range of concentrations, read-out: 50% inhibition (IC50) of MUC1-CD dimerization) | nuclear MUC1-C levels (MUC1-C) | cellular MUC1-C levels (MUC1-C) |
| --- | --- | --- | --- | --- | --- | --- | --- |
| O=c1cc(-c2ccccc2)oc2cc(O)c(O)c(O)c12 [Baicalein, 5,6,7-trihydroxyflavone, reference compound] | not | little if any effect | – | – | – | – | – |
| O=c1cc(-c2ccc(O)cc2)oc2cc(O)cc(O)c12 [Apigenin, 4′,5,7-trihydroxyflavone] | blocked MUC1-C occupancy on the MUC1 promoter | – | ~80% | MUC1 dimerization inhibitory compounds | 76 µM | – | – |
| CC[C@H](C)[C@H](NC(=O)[C@H](CC(=O)O)NC(=O)[C@H](CC(C)C)NC(=O)[C@H](CCC(N)=O)NC(=O)CNC(=O)[C@H](Cc1ccc(O)cc1)NC(=O)[C@H](CC(N)=O)NC(=O)[C@H](CCCCN)NC(=O)[C@H](CCCNC(=N)N)NC(=O)[C@H](CCCNC(=N)N)NC(=O)[C@H](CS)NC(=O)[C@H](CCC(N)=O)NC(=O)[C@H](CS)NC(=O)[C@@H](CCCNC(=N)N)NC(=O)[C@@H](CCCNC(=N)N)NC(=O)[C@@H](CCCNC(=N)N)NC(=O)[C@@H](CCCNC(=N)N)NC(=O)[C@@H](CCCNC(=N)N)NC(=O)[C@@H](CCCNC(=N)N)NC(=O)[C@@H](CCCNC(=N)N)NC(=O)[C@@H](CCCNC(=N)N)NC(=O)[C@H](N)CCCNC(=N)N)C(=O)N[C@@H](Cc1ccccc1)C(=O)N1CCC[C@H]1C(=O)O [MUC1/CQC] | – | – | – | – | – | decreases in nuclear MUC1-C levels | no effect |
| MUC1/AQA: control peptide in which the CQC motif was altered to AQA (SEQ ID NO: 11) (AQARRKNYGQLDIFP) [reference compound] | – | – | – | – | – | not | no effect |
